Results taken from patent US20100048398A1, “HERBICIDAL COMBINATION” (SYNGENTA CROP PROTECTION, INC., priority 2006, published 2010).

Columns and labels:
Test in all cases: Glasshouse peri-emergence herbicide test, damage to plant
Type in all cases: in vivo
Details in all cases: sprayed six days after sowing (peri-emergence), evaluated after 14 days; rate gai/ha: Prosulfocarb 2400, Flumioxazin 20, combination 2400 + 20
[1] = tested on: ALOMY = Alopecurus myosuroides
Protocol: (§1) Seeds of a variety of test species were sown in standard soil. After cultivation for six days (peri-emergence) under controlled conditions in a glasshouse (at 24/16° C., day/night; 14 hours light; 65% humidity), the plants were sprayed with an aqueous spray solution comprising the technical active ingredient(s). The test plants were then grown in a glasshouse under controlled conditions in a glasshouse (at 24/16° C., day/night; 14 hours light; 65% humidity) and watered twice daily. After 14 days, the test was evaluated (100=total damage to plant; 0=no damage to plant).

[2] = tested on: APESV = Apera spica-venti
Protocol: as §1

AVEFA = Avena fatua = tested on: AVEFA = Avena fatua
Protocol: as §1

GALAP = Galium aparine = tested on: GALAP = Galium aparine
Protocol: as §1

HORVW = Hordeum vulgare = tested on: HORVW = Hordeum vulgare
Protocol: as §1

[3] = tested on: LOLMU = Lolium multiflorum
Protocol: as §1

POAAN = Poa annua = tested on: POAAN = Poa annua
Protocol: as §1

TRZAW = Tritcum aestivum = tested on: TRZAW = Tritcum aestivum
Protocol: as §1

[4] = tested on: VERPE = Veronica persicae
Protocol: as §1

SMILES | damage to plant (100=total damage; 0=no damage), ALOMY [1] | damage to plant (100=total damage; 0=no damage), APESV [2] | damage to plant (100=total damage; 0=no damage), AVEFA (AVEFA = Avena fatua) | damage to plant (100=total damage; 0=no damage), GALAP (GALAP = Galium aparine) | damage to plant (100=total damage; 0=no damage), HORVW (HORVW = Hordeum vulgare) | damage to plant (100=total damage; 0=no damage), LOLMU [3] | damage to plant (100=total damage; 0=no damage), POAAN (POAAN = Poa annua) | damage to plant (100=total damage; 0=no damage), TRZAW (TRZAW = Tritcum aestivum) | damage to plant (100=total damage; 0=no damage), VERPE [4]
C#CCN1C(=O)COc2cc(F)c(N3C(=O)C4=C(CCCC4)C3=O)cc21 [Flumioxazin, flumioxazin] | 33 | 60 | 8 | 73 | 0 | 0 | 5 | 8 | 99
CCCN(CCC)C(=O)SCc1ccccc1 [Prosulfocarb, prosulfocarb] | 78 | 95 | 55 | 78 | – | 30 | 0 | – | 88
